From article PMC5564600 (Oncotarget, 2017) come the findings set out here.

Assay in all cases: biochemical
Assay type in all cases: binding

The target of assay [1] is T1, panel of 442 kinases (Homo sapiens, UniProt Q9H1R3).
T1 construct: purchased Ambit Biosciences (scanMAXX KINOMEscan)
To be noted: kinase MYLK2; for remaining activity at 1 µM: read-out: % of control at 1 µM.

Assay [2] has as its target T2, panel of 442 kinases (Homo sapiens, UniProt Q99640).
T2 construct: purchased Ambit Biosciences (scanMAXX KINOMEscan)
T2 sequence (Q99640 1-499): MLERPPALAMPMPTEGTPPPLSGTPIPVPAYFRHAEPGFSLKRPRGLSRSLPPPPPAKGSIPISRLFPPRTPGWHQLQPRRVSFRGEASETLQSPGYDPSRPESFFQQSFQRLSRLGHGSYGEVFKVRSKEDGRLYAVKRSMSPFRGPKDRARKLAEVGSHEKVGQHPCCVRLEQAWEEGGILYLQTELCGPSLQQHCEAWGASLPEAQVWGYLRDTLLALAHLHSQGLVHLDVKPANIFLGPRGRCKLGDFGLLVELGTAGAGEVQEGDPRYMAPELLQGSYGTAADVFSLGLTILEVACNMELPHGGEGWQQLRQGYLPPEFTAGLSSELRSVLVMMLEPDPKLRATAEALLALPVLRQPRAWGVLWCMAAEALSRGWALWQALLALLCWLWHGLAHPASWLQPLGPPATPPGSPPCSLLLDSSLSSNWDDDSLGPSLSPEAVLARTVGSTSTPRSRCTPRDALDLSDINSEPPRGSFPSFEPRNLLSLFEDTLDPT
To be noted: kinase PKMYT1; for remaining activity at 1 µM: read-out: PKMYT1 (% of control at 1 µM).

In assay [3] the target is T3, panel of 442 kinases (Homo sapiens, UniProt P36888, D835H).
T3 construct: purchased Ambit Biosciences (scanMAXX KINOMEscan)
T3 sequence (P36888 27-993 D835H): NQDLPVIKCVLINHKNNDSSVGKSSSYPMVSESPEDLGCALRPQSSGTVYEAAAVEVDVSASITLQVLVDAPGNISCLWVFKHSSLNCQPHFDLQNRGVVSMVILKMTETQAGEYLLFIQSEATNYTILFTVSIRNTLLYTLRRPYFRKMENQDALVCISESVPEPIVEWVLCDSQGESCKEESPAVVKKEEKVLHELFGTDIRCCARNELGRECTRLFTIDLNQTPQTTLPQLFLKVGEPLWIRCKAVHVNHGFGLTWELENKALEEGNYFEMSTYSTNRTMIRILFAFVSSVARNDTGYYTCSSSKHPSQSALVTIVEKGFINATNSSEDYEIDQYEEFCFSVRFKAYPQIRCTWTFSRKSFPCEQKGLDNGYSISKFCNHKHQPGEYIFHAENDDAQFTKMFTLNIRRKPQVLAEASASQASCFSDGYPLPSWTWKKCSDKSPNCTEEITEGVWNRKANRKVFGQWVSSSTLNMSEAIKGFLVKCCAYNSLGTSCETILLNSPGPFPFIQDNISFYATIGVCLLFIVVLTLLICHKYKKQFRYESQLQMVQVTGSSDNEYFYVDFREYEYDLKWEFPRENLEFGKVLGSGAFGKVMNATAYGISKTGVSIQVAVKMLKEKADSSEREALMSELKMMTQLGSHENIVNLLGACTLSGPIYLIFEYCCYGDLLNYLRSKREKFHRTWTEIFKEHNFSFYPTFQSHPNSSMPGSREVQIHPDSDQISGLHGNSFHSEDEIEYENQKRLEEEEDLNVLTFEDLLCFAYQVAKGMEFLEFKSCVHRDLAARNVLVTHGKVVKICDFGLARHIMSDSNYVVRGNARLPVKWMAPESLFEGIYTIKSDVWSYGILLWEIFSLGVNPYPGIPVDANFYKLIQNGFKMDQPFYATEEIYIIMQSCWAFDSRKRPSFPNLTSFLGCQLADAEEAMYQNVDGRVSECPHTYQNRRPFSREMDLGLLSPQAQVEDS
Particulars: FLT3(D835H); for remaining activity at 1 µM: read-out: % of control at 1 µM.

Assay [4] has as its target T4, panel of 442 kinases (Homo sapiens, UniProt P00533, T790M).
T4 construct: purchased Ambit Biosciences (scanMAXX KINOMEscan)
To be noted: EGFR(T790M); for remaining activity at 1 µM: read-out: % of control at 1 µM.

Assay [5] concerns the target T5, panel of 442 kinases (Homo sapiens, UniProt P00519, Q252H).
T5 construct: purchased Ambit Biosciences (scanMAXX KINOMEscan)
Particulars: for remaining activity at 1 µM: read-out: % of control at 1 µM; for remaining activity at 10 µM: read-out: % of control at 10 µM.

Assay [6] addresses T6, panel of 442 kinases (Homo sapiens, UniProt P07949, V804M).
T6 construct: purchased Ambit Biosciences (scanMAXX KINOMEscan)
Particulars: kinase RET(V804M); for remaining activity at 1 µM: read-out: RET(V804M) (% of control at 1 µM).

In assay [7] the target is T7, panel of 442 kinases (Homo sapiens, UniProt Q9H2G2).
T7 construct: purchased Ambit Biosciences (scanMAXX KINOMEscan)
T7 sequence (Q9H2G2 whole entry): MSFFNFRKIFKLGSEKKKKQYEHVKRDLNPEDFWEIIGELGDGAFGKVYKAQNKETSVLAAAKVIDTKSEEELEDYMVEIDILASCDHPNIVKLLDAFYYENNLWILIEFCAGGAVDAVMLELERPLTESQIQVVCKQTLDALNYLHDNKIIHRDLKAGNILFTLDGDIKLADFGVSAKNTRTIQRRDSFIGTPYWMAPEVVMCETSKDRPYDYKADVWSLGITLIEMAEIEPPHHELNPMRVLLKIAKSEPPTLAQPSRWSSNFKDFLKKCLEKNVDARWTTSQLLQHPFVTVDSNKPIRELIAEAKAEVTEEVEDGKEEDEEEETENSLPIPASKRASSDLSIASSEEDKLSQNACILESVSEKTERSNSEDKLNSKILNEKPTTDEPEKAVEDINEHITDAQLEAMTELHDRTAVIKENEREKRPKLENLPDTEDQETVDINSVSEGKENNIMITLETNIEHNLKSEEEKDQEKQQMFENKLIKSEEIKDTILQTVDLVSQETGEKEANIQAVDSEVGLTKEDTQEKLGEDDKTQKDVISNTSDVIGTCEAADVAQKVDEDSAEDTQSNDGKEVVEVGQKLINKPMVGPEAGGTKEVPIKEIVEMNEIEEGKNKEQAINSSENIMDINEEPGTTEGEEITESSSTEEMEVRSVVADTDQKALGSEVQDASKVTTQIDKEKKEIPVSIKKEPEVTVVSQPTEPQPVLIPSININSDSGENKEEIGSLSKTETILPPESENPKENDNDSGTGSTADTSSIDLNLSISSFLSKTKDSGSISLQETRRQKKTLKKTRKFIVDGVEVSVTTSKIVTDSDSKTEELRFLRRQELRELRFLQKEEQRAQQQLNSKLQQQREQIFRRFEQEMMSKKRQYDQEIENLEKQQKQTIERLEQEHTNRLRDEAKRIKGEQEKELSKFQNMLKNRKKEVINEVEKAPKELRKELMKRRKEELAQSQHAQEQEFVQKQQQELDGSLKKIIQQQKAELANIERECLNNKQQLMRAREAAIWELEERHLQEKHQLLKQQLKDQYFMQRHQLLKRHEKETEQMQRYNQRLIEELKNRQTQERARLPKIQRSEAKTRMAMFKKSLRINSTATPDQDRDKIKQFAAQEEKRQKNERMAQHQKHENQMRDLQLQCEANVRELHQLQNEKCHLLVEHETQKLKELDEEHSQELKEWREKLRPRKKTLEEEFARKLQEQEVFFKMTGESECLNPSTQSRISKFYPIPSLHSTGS
To be noted: kinase SLK; for remaining activity at 1 µM: read-out: SLK (% of control at 1 µM).

[8] abbreviates: 10 µM, read-out: % of control at 10 µM.

Like-named read-outs stand apart in the source and are kept apart here.

T4 sequence (P00533 25-1210 T790M): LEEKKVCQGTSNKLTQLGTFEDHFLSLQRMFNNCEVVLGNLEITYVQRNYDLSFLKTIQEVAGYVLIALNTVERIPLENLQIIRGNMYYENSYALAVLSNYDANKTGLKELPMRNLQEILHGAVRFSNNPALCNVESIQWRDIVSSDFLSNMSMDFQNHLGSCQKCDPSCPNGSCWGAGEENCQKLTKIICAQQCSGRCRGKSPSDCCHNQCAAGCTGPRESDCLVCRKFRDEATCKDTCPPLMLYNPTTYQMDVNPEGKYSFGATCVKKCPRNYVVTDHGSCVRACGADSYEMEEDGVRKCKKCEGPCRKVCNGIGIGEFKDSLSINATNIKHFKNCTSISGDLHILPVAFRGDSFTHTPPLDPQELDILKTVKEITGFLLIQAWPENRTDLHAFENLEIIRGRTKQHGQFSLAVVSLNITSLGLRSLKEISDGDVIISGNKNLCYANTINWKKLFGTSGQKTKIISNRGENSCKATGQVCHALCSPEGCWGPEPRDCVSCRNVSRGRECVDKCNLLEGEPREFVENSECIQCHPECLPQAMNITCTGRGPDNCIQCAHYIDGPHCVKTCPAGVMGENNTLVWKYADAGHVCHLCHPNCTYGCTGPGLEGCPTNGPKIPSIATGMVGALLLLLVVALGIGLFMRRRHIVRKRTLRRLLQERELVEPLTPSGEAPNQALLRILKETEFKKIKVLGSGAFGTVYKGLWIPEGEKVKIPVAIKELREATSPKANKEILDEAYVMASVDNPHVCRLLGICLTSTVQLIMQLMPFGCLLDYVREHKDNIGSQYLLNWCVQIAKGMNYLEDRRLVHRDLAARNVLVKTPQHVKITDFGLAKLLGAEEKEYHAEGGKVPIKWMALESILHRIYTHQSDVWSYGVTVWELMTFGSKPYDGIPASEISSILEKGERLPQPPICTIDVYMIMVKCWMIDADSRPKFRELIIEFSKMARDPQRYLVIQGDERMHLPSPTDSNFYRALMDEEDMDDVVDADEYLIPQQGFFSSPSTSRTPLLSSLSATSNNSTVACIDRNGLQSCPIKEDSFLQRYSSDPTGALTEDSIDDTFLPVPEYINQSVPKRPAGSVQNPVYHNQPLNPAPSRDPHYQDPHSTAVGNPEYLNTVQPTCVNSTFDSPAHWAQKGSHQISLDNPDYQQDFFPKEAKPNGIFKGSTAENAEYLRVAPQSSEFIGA
T6 sequence (P07949 29-1114 V804M): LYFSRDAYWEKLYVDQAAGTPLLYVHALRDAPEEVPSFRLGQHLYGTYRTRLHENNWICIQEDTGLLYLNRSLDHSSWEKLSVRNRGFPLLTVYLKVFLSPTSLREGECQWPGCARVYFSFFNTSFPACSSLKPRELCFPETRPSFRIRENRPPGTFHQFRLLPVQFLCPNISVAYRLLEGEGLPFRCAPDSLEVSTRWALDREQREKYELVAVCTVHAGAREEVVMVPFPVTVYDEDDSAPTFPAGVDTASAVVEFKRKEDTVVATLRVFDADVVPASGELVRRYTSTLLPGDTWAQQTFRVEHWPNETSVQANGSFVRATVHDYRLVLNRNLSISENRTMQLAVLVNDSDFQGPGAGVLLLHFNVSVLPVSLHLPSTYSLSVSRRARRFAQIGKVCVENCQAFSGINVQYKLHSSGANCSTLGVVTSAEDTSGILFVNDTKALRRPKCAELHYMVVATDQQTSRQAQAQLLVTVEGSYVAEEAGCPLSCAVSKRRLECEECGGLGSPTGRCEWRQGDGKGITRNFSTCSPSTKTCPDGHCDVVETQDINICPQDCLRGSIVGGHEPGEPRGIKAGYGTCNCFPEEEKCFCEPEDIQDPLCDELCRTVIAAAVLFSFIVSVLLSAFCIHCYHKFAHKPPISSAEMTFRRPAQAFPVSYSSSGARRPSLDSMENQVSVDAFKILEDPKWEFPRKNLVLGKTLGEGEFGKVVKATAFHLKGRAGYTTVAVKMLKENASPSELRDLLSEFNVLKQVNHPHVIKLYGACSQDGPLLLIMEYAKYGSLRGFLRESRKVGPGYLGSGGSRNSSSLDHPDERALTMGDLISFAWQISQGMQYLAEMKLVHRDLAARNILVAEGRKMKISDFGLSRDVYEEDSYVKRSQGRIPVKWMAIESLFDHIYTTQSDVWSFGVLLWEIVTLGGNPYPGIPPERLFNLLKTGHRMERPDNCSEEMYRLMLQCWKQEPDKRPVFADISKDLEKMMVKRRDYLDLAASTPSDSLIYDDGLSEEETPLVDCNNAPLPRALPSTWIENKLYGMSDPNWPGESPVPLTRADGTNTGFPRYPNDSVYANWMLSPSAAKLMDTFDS
T1 sequence (Q9H1R3 whole entry): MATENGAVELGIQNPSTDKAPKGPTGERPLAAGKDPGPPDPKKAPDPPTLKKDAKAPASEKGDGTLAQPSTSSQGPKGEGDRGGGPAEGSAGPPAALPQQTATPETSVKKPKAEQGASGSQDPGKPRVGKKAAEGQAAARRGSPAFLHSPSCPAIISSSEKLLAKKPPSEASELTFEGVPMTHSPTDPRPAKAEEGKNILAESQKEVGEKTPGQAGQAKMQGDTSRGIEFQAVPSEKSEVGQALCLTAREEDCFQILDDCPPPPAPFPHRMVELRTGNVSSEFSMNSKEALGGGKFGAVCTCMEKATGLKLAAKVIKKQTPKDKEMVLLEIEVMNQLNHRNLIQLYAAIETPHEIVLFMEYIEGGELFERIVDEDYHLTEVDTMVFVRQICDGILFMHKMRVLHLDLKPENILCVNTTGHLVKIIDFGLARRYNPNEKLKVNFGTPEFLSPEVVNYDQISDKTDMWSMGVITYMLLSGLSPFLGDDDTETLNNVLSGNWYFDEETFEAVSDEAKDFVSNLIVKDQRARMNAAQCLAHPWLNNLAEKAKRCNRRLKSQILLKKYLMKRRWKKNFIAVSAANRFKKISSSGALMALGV

Take `Nc1cc(C(F)(F)F)c(-c2cc(N3CCOCC3)nc(N3CCOCC3)n2)cn1` [Buparlisib]: the remaining activity at 1 µM was found to be 100% on panel of 442 kinases [1]; 100% at panel of 442 kinases [2]; 89% on panel of 442 kinases [3]; 73% on panel of 442 kinases [4]; 100% on panel of 442 kinases [5] (ABL1(Q252H)-nonphosphorylated); 72% on panel of 442 kinases [5] (ABL1(Q252H)-phosphorylated). Also, the remaining activity at 1 µM at panel of 442 kinases [6] came out at 97%; on panel of 442 kinases [7], 100%. The remaining activity at 10 µM at panel of 442 kinases [1] (setting [8]) worked out at 100%; at panel of 442 kinases [2] (10 µM, read-out: PKMYT1 (% of control at 10 µM)), 100%; on panel of 442 kinases [3] (setting [8]), 76%; at panel of 442 kinases [4] (setting [8]) it was 69%; on panel of 442 kinases [5] (ABL1(Q252H)-nonphosphorylated) it was 100%; at panel of 442 kinases [5] (ABL1(Q252H)-phosphorylated), 100%. In addition, the remaining activity at 10 µM at panel of 442 kinases [6] (10 µM, read-out: RET(V804M) (% of control at 10 µM)) worked out at 100%; at panel of 442 kinases [7] (10 µM, read-out: SLK (% of control at 10 µM)), 100%.
Take `Cn1c(=O)n(-c2ccc(C(C)(C)C#N)cc2)c2c3cc(-c4cnc5ccccc5c4)ccc3ncc21` [Dactolisib, 2-methyl-2-[4-(3-methyl-2-oxo-8-quinolin-3-yl-2,3-dihydroimidazo[4,5-c]quinolin-1-yl)-phenyl] propionitrile]: the remaining activity at 1 µM on panel of 442 kinases [1] turned out to be 93%; on panel of 442 kinases [2] it was 75%; at panel of 442 kinases [3], 26%; at panel of 442 kinases [4], 100%; on panel of 442 kinases [5] (ABL1(Q252H)-nonphosphorylated), 57%; on panel of 442 kinases [5] (ABL1(Q252H)-phosphorylated) it was 59%. In addition, on panel of 442 kinases [7], the remaining activity at 1 µM was found to be 89%.
Regarding `COc1ncc(-c2ccc3nccc(-c4ccnnc4)c3c2)cc1NS(=O)(=O)c1ccc(F)cc1F` [Omipalisib], the remaining activity at 1 µM worked out at 100% on panel of 442 kinases [1]; 81% at panel of 442 kinases [2]; 100% on panel of 442 kinases [3]; 100% at panel of 442 kinases [4]; 100% on panel of 442 kinases [5] (ABL1(Q252H)-nonphosphorylated); 100% at panel of 442 kinases [5] (ABL1(Q252H)-phosphorylated). The remaining activity at 1 µM stood at 90% on panel of 442 kinases [6] and 100% at panel of 442 kinases [7].
For `FC(F)c1nc2ccccc2n1-c1nc(N2CCOCC2)nc(N2CCOCC2)n1` [ZSTK474, 2-(difluoromethyl)-1-[4,6-di(4-morpholinyl)-1,3,5-triazin-2-yl]-1H-benzimidazole], the remaining activity at 1 µM amounted to 95% on panel of 442 kinases [1]; 72% on panel of 442 kinases [2]; 100% at panel of 442 kinases [3]; 100% on panel of 442 kinases [4]; 100% on panel of 442 kinases [5] (ABL1(Q252H)-nonphosphorylated); 100% on panel of 442 kinases [5] (ABL1(Q252H)-phosphorylated). Besides, the remaining activity at 1 µM at panel of 442 kinases [6] and on panel of 442 kinases [7] was 100% throughout.
